≈ marks a conversion by molar mass, not a printed value.

The subject of one test is Pasteurella multocida PM 6267 (P 2225 (L386), reference strain, mouse infection strain). As to the kind of experiment: MIC, broth-microdilution (CLSI VET01-A4), strain PM 6267. The format is cell-based. As to conditions: Pasteurella multocida strain PM 6267, broth-microdilution; unit assumed. The method, boiled down:
(§1)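 Test articles are arrayed as a twofold dilution range in microdilution trays. Wells are scored by naked eye, and the MIC is taken where turbidity first disappears.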
The compound `C=CCNCc1ccc(C#Cc2ccc(C(=O)N[C@H](C(=O)NO)C(C)(C)S(C)(=O)=O)cc2)cn1` [Compound 370] gave an MIC PM 6267 of 0.2 µg/mL (≈ 0.413 µM).
As to `CC1CN(Cc2ccc(C#Cc3ccc(C(=O)N[C@H](C(=O)NO)C(C)C)cc3)cc2)CC(C)O1` (stereo partly drawn) [Compound 165], the MIC PM 6267 is at most 0.1 µg/mL.
On to `CC(C)(O)[C@H](NC(=O)c1ccc(C#Cc2ccc(CNCc3ncccn3)nc2)cc1)C(=O)NO` [Compound 363], for which the MIC PM 6267 is 1.6 µg/mL (≈ 3.37 µM).

The subject of another test is Mannheimia haemolytica MH 6357 (M7/2, reference strain, cattle infection strain). As to the kind of experiment: MIC, broth-microdilution (CLSI VET01-A4), strain MH 6357. The format is cell-based. The note with it: Mannheimia haemolytica strain MH 6357, broth-microdilution; unit assumed. The method in brief:
as §1
Turning to `C=CCNCc1ccc(C#Cc2ccc(C(=O)N[C@H](C(=O)NO)C(C)(C)S(C)(=O)=O)cc2)cn1` [Compound 370], the MIC MH 6357 amounted to 0.8 µg/mL (≈ 1.65 µM).
On the same count and under the same terms, as for `CC1CN(Cc2ccc(C#Cc3ccc(C(=O)N[C@H](C(=O)NO)C(C)C)cc3)cc2)CC(C)O1` (stereo partly drawn) [Compound 165], the figure is 6.3 µg/mL (≈ 13.6 µM); as for `CC(C)(O)[C@H](NC(=O)c1ccc(C#Cc2ccc(CNCc3ncccn3)nc2)cc1)C(=O)NO` [Compound 363], 6.3 µg/mL (≈ 13.3 µM).

The test system of a further test is Mannheimia haemolytica MH 6374 (ATCC 33396, reference strain). As to the kind of experiment: MIC, broth-microdilution (CLSI VET01-A4), strain MH 6374. The format is cell-based. The note with it: Mannheimia haemolytica strain MH 6374, broth-microdilution; unit assumed. The method, boiled down: as §1
Consider `C=CCNCc1ccc(C#Cc2ccc(C(=O)N[C@H](C(=O)NO)C(C)(C)S(C)(=O)=O)cc2)cn1` [Compound 370], for which the MIC MH 6374 was determined as 1.6 µg/mL (≈ 3.3 µM).
With `CC1CN(Cc2ccc(C#Cc3ccc(C(=O)N[C@H](C(=O)NO)C(C)C)cc3)cc2)CC(C)O1` (stereo partly drawn) [Compound 165], the MIC MH 6374 amounted to 12.5 µg/mL (≈ 27 µM).
On the same count and under the same terms, the result for `CC(C)(O)[C@H](NC(=O)c1ccc(C#Cc2ccc(CNCc3ncccn3)nc2)cc1)C(=O)NO` [Compound 363] reads 6.3 µg/mL (≈ 13.3 µM).

A further test relates to Pasteurella multocida PM 10775 (080130003051, BRD field isolate). As to the kind of experiment: MIC, broth-microdilution (CLSI VET01-A4), strain PM 10775. The note with it: Pasteurella multocida strain PM 10775, broth-microdilution; unit assumed. It is filed as cell-based. The method in brief: as §1
Take `C=CCNCc1ccc(C#Cc2ccc(C(=O)N[C@H](C(=O)NO)C(C)(C)S(C)(=O)=O)cc2)cn1` [Compound 370]: the MIC PM 10775 was at most 0.1 µg/mL.
The same measure, in the same setting: as for `CC1CN(Cc2ccc(C#Cc3ccc(C(=O)N[C@H](C(=O)NO)C(C)C)cc3)cc2)CC(C)O1` (stereo partly drawn) [Compound 165], the figure is at most 0.1 µg/mL.
Still for that read-out and setting: as for `CC(C)(O)[C@H](NC(=O)c1ccc(C#Cc2ccc(CNCc3ncccn3)nc2)cc1)C(=O)NO` [Compound 363], the figure is 0.4 µg/mL (≈ 0.843 µM).

In a further test the test system is Mannheimia haemolytica MH 13093 (XB0472-6014.1, BRD field isolate). As to the kind of experiment: MIC, broth-microdilution (CLSI VET01-A4), strain MH 13093. The format is cell-based. The note with it: Mannheimia haemolytica strain MH 13093, broth-microdilution; unit assumed. The method in brief: as §1
`C=CCNCc1ccc(C#Cc2ccc(C(=O)N[C@H](C(=O)NO)C(C)(C)S(C)(=O)=O)cc2)cn1` [Compound 370] gave an MIC MH 13093 of 3.1 µg/mL (≈ 6.4 µM).
On the same count and under the same terms, the result for `CC1CN(Cc2ccc(C#Cc3ccc(C(=O)N[C@H](C(=O)NO)C(C)C)cc3)cc2)CC(C)O1` (stereo partly drawn) [Compound 165] reads 12.5 µg/mL (≈ 27 µM); that for `CC(C)(O)[C@H](NC(=O)c1ccc(C#Cc2ccc(CNCc3ncccn3)nc2)cc1)C(=O)NO` [Compound 363], 25 µg/mL (≈ 52.7 µM).

The test system of the next test is Mannheimia haemolytica MH 13065 (XB0446-6003.9, BRD field isolate). As to the kind of experiment: MIC, broth-microdilution (CLSI VET01-A4), strain MH 13065. It is filed as cell-based. As to conditions: Mannheimia haemolytica strain MH 13065, broth-microdilution; unit assumed. The method, boiled down: as §1
Regarding `C=CCNCc1ccc(C#Cc2ccc(C(=O)N[C@H](C(=O)NO)C(C)(C)S(C)(=O)=O)cc2)cn1` [Compound 370], the MIC MH 13065 stood at 1.6 µg/mL (≈ 3.3 µM).
Same read-out and setting: as for `CC1CN(Cc2ccc(C#Cc3ccc(C(=O)N[C@H](C(=O)NO)C(C)C)cc3)cc2)CC(C)O1` (stereo partly drawn) [Compound 165], the figure is 12.5 µg/mL (≈ 27 µM); as for `CC(C)(O)[C@H](NC(=O)c1ccc(C#Cc2ccc(CNCc3ncccn3)nc2)cc1)C(=O)NO` [Compound 363], 12.5 µg/mL (≈ 26.3 µM).

A further test has as its system Mannheimia haemolytica MH 10720 (154, BRD field isolate). As to the kind of experiment: MIC, broth-microdilution (CLSI VET01-A4), strain MH 10720. The format is cell-based. As to conditions: Mannheimia haemolytica strain MH 10720, broth-microdilution; unit assumed. The method, boiled down:
as §1
In the case of `C=CCNCc1ccc(C#Cc2ccc(C(=O)N[C@H](C(=O)NO)C(C)(C)S(C)(=O)=O)cc2)cn1` [Compound 370], the MIC MH 10720 was determined as 0.8 µg/mL (≈ 1.65 µM).
Take `CC1CN(Cc2ccc(C#Cc3ccc(C(=O)N[C@H](C(=O)NO)C(C)C)cc3)cc2)CC(C)O1` (stereo partly drawn) [Compound 165]: the MIC MH 10720 was determined as 3.1 µg/mL (≈ 6.69 µM).
In turn, `CC(C)(O)[C@H](NC(=O)c1ccc(C#Cc2ccc(CNCc3ncccn3)nc2)cc1)C(=O)NO` [Compound 363] showed an MIC MH 10720 of 3.1 µg/mL (≈ 6.53 µM).

The next test deals with Pasteurella multocida PM 12080 (IV102277-0093, BRD field isolate). As to the kind of experiment: MIC, broth-microdilution (CLSI VET01-A4), strain PM 12080. The note with it: Pasteurella multocida strain PM 12080, broth-microdilution; unit assumed. It is filed as cell-based. The method in brief: as §1
`C=CCNCc1ccc(C#Cc2ccc(C(=O)N[C@H](C(=O)NO)C(C)(C)S(C)(=O)=O)cc2)cn1` [Compound 370] registered an MIC PM 12080 of 0.2 µg/mL (≈ 0.413 µM).
The compound `CC1CN(Cc2ccc(C#Cc3ccc(C(=O)N[C@H](C(=O)NO)C(C)C)cc3)cc2)CC(C)O1` (stereo partly drawn) [Compound 165] gave an MIC PM 12080 of at most 0.1 µg/mL.
`CC(C)(O)[C@H](NC(=O)c1ccc(C#Cc2ccc(CNCc3ncccn3)nc2)cc1)C(=O)NO` [Compound 363] gave an MIC PM 12080 of 1.6 µg/mL (≈ 3.37 µM).

For the next test, the system named is Mannheimia haemolytica MH 12587 (1071, BRD field isolate, macrolide-resistance: erm+, E+). As to the kind of experiment: MIC, broth-microdilution (CLSI VET01-A4), strain MH 12587. The format is cell-based. As to conditions: Mannheimia haemolytica strain MH 12587, broth-microdilution; unit assumed. The method, boiled down: as §1
In turn, `C=CCNCc1ccc(C#Cc2ccc(C(=O)N[C@H](C(=O)NO)C(C)(C)S(C)(=O)=O)cc2)cn1` [Compound 370] showed an MIC MH 12587 of 3.1 µg/mL (≈ 6.4 µM).
`CC1CN(Cc2ccc(C#Cc3ccc(C(=O)N[C@H](C(=O)NO)C(C)C)cc3)cc2)CC(C)O1` (stereo partly drawn) [Compound 165] came in with an MIC MH 12587 of 25 µg/mL (≈ 53.9 µM).
On the same count and under the same terms, the result for `CC(C)(O)[C@H](NC(=O)c1ccc(C#Cc2ccc(CNCc3ncccn3)nc2)cc1)C(=O)NO` [Compound 363] reads 25 µg/mL (≈ 52.7 µM).

Another test deals with Pasteurella multocida PM 6391 (ATCC 43137, reference strain). As to the kind of experiment: MIC, broth-microdilution (CLSI VET01-A4), strain PM 6391. The format is cell-based. As to conditions: Pasteurella multocida strain PM 6391, broth-microdilution; unit assumed. As to the method:
For example, representative compounds were tested against ***, Mannheimia haemolytica and Pasteurella multocida, using the conventional broth-dilution assay.
The Minimum inhibitory concentrations (MIC) of compounds according to the invention for a number of veterinary bacterial pathogens were determined by the broth-microdilution method according to CLSI document VET01-A4.
Microdilution trays containing a doubling dilution series of the test compound were used for the tests. The MIC results were interpreted according to the CLSI documents VET01-S3. The lowest concentration of compound at which no visible growth (i.e. no turbidity) detected by the unaided eye was recorded as the MIC.
Compound `C=CCNCc1ccc(C#Cc2ccc(C(=O)N[C@H](C(=O)NO)C(C)(C)S(C)(=O)=O)cc2)cn1` [Compound 370] gave an MIC PM 6391 of 0.4 µg/mL (≈ 0.825 µM).
The same measure, in the same setting: the result for `CC1CN(Cc2ccc(C#Cc3ccc(C(=O)N[C@H](C(=O)NO)C(C)C)cc3)cc2)CC(C)O1` (stereo partly drawn) [Compound 165] reads 0.2 µg/mL (≈ 0.431 µM); that for `CC(C)(O)[C@H](NC(=O)c1ccc(C#Cc2ccc(CNCc3ncccn3)nc2)cc1)C(=O)NO` [Compound 363], 3.1 µg/mL (≈ 6.53 µM).
